The values that follow come from patent US20230219912A1, “HALOGENATED BENZOTHIADIAZINES FOR THE TREATMENT OF CANCER” (BOARD OF REGENTS OF THE UNIVERSITY OF NEBRASKA, priority 2020, published 2023).

The IC50 is the midpoint of a concentration-inhibition curve.

Where “and” joins values, the source holds several entries; their conditions need not be identical. Equal values may be shown once. Entries after “also recorded” stand apart in the source; their conditions may differ. Read-outs that look alike come from different tables or passages of the source.

The target of test [1] is T1, Mitochondrial respiratory complex II (Rattus norvegicus, UniProt P21913+Q641Z9+Q6PCT8+Q920L2).
T1 construct: measured spectrophotometrically using isolated rat heart mitochondria; from tissue; host or cells: rat heart mitochondria / sub-mitochondrial particles
T1 sequence (Q920L2 35-656): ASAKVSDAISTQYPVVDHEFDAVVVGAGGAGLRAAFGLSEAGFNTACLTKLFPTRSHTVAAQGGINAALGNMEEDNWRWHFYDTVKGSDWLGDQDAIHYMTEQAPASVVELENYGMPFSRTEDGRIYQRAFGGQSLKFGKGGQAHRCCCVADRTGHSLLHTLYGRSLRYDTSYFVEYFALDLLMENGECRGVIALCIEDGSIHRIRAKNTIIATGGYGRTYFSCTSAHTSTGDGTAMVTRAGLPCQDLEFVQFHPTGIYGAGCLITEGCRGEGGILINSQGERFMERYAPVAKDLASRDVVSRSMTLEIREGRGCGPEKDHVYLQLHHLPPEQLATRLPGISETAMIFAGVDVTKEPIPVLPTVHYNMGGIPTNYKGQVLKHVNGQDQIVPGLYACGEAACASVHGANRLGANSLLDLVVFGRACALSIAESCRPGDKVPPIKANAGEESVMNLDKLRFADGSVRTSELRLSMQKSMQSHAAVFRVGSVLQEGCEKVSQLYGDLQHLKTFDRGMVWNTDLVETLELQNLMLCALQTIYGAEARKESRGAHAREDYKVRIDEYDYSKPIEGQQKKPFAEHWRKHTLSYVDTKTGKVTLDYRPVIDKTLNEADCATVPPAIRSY
T1 sequence (P21913 31-282): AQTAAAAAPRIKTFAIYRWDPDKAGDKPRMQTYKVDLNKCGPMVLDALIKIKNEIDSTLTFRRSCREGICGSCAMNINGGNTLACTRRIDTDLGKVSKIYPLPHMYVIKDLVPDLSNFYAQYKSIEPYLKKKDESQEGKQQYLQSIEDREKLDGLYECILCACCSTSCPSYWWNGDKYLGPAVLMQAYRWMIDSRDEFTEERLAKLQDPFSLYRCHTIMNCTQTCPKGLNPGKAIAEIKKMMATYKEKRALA
T1 sequence (Q641Z9 1-169): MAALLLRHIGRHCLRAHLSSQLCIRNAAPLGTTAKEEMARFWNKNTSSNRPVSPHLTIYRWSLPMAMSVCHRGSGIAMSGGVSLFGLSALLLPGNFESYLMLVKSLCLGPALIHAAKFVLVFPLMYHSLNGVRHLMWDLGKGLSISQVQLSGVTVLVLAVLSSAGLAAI
T1 sequence (Q6PCT8 57-159): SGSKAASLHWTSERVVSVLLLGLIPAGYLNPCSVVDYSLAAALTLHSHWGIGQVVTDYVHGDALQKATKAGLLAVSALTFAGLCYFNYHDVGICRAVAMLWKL
The test is described as follows: Mitochondrial respiratory complex II inhibition assay. It is filed as biochemical. As to conditions: for inhibition at 100 µM / inhibition of CII: relative to DMSO control, 100 μM; for inhibition at 100 µM: read-out: inhibition of CII; for IC50: isolated rat heart mitochondria, mean ±SD of n = 4, read-out: CII IC50. The protocol: The assay was performed as follows. Mitochondria were isolated either from fresh rat hearts or by differential centrifugation in sucrose-based buffer as previously described.^24 Complex II enzymatic activity was determined spectrophotometrically as the rate of succinate-driven, co-enzyme Q2-linked reduction of dichlorophenolindophenol (DCPIP).^49 Mitochondria or sub-mitochondrial particles were incubated in phosphate buffer (pH 7.4) containing 40 μM DCPIP, 1 mM KCN, 10 μM rotenone, and 50 μM co-enzyme Q2. The rate of reduction of DCPIP to DCPIPH2 was followed at […] (ε=21,000 M-1). Varying amounts of succinate and inhibitors were used to determine an IC50 value. At the end of each run thenoyltrifluoroacetone (1 mM) was added and the residual TTFA-insensitive rate subtracted.

Test [2] deals with 22Rv1 prostate cancer cells. The test is described as follows: MTS cytotoxicity assay in 22Rv1 prostate cancer cells. Particulars: for cytotoxicity at 100 µM: Homo sapiens, 22Rv1, 48 h, read-out: reduction of 22Rv1 cell viability; for reduction of 22Rv1 cell viability: 100 μM, 48 hrs treatment, MTS. As for the experimental part: The assay was performed as follows. To determine the cell growth inhibition ability of the synthesized compounds the (3-(4,5-dimethylthiazol-2-yl)-5-(3-carboxymethoxyphenyl)-2-(4-sulfophenyl)-2H-tetrazolium) (MTS) assay used according to the manufacturer's recommended protocol. Stock solutions of the synthesized compounds were prepared in DMSO. Cells were seeded at a density of 1×10^5 cells in 96-well plates. After 24 hours, cells were treated at the indicated concentrations of test compounds, limiting the final DMSO concentration to less than 1%. After incubation at 37° C. in an environment of 5% CO2 for 48-72 hours, 10 μL of MTS reagent (CellTiter 96© AQueous One Solution Reagent) was added to each well and incubated at the above mentioned conditions for 2-4 hr. Absorbance was recorded at 490 nm on a BioTek Synergy Mx multimode plate reader and the viability of cells were plotted as percentage of controls.
Background: Formazan colour is commonly taken as a measure of viable cells.

The subject of test [3] is VEGF-induced proliferation of HUVEC cells. In words: VEGF-induced HUVEC proliferation, MTT assay. Particulars: for inhibition at 20 µM: Homo sapiens, HUVEC, 48 h, read-out: % Inhibition of Proliferation; for inhibition of VEGF-induced HUVEC proliferation (in words): 20 μM. It is filed as cell-based, human. The protocol: The assay was performed as follows. Vascular endothelial growth factor (VEGF, Cat #SRP3182) was purchased from Sigma. […] Stock solutions of all compounds were prepared in DMSO and were serially diluted for cell culture treatment maintaining the final DMSO concentration at less than 1%. Cell proliferation of HUVECs was evaluated through the MTT (3-[4, 5-dimethylthiazol-2-yl]-2, 5-dimethyltetrazolium bromide) colorimetric assay, as previously described.^28 The HUVECs were seeded at a density of 10,000 cells/well in 24 well plates in serum-containing medium and cultured overnight. Cells were starved with 300 μL of assay media (0.1% BSA+0.1% FBS in basal medium) for 24 h. Then, cells were treated with 500 μL of assay medium (control group), VEGF (10 ng/mL, positive control group) or VEGF along with compounds (20 μM). After 48 h of culture, 50 μL of MTT stock (5 mg/mL in PBS) was added to each well and incubated for 2 h at 37° C. to allow the formation of dark blue formazan crystals in the metabolically active cells. The medium was removed, the cells were washed with PBS (pH 7.4), and 100 μL of acidified isopropanol (0.33 mL HCl in 100 mL isopropanol) was added to each well and incubated for 5 min with thorough agitation to solubilize the formazan crystals. An equal volume of the solution was transferred to a 96-well plate and the absorbance was immediately measured using a microplate reader at a wavelength of 570 nm.

[4] abbreviates: 20 μM compound, VEGF 10 ng/mL, relative to VEGF treated cells, mean ± SEM n = 3.

For `O=S1(=O)NC(=S)Nc2cc(Cl)ccc21` [Compound 12b, 6-chloro-3-thioxo-3,4-dihydro-2H-1,2,4-benzothiadiazine 1,1-dioxide], in test [1], the inhibition at 100 µM came to 81% and the half-inhibitory concentration (IC50) worked out at 11.9 µM. In test [2], the cytotoxicity at 100 µM was 12%. In addition, the inhibition at 20 µM in test [3] (setting [4]) was determined as 0%. As for `O=S1(=O)NC(=S)Nc2ccc(Br)cc21` [Compound 12c, 7-bromo-3-thioxo-3,4-dihydro-2H-1,2,4-benzothiadiazine 1,1-dioxide], in test [1], the inhibition at 100 µM was found to be 55% and the IC50 stood at 37 µM. Besides, in test [2], the cytotoxicity at 100 µM was found to be 16%. On to `O=S1(=O)N=C(NCc2ccc(Cl)cc2)Nc2ccc(F)cc21` [Compound 16a, 3-((4-chlorobenzyl)amino)-7-fluoro-4H-benzo[e][1,2,4]thiadiazine 1,1-dioxide], for which the “reduction of 22Rv1 cell viability” value in test [2] was “inactive”. In the case of `O=S1(=O)N=C(NCc2ccc(Cl)cc2)Nc2ccc(Br)cc21` [Compound 16c, 7-bromo-3-((4-chlorobenzyl)amino)-4H-benzo[e][1,2,4]thiadiazine 1,1-dioxide dioxide], the “inhibition of CII” value in test [1] was determined as 45%.

As to `O=S1(=O)N=C(NCc2ccc(Cl)cc2)Nc2ccccc21` [Compound 16d, 3-((4-chlorobenzyl)amino)-4H-benzo[e][1,2,4]thiadiazine 1,1-dioxide], in test [1], the “inhibition of CII” value is “inactive”. The same measure, in the same setting: to `O=S1(=O)N=C(NC2CCCC2)Nc2ccc(F)cc21` [Compound 22a, 7-fluoro-3-(cyclopentylamino)-4H-benzo[e][1,2,4]thiadiazine 1,1-dioxide] belongs “inactive”. For `O=S1(=O)N=C(NCCCc2ccccc2)Nc2ccc(Br)cc21` [Compound 23c, 7-bromo-3-((3-phenylpropyl)amino)-4H-benzo[e][1,2,4]thiadiazine 1,1-dioxide], in test [1], the “inhibition of CII” value was 47% and the inhibition at 100 µM amounted to 46%. Also, in test [2], the cytotoxicity at 100 µM was 42%. In test [3] (setting [4]), the inhibition at 20 µM was 24 ± 41%.

With `O=S1(=O)N=C(NCCCc2ccccc2)Nc2ccccc21` [Compound 23d, 3-((3-phenylpropyl)amino)-4H-benzo[e][1,2,4]thiadiazine 1,1-dioxide], the inhibition at 100 µM in test [1] came out at 0%. Also, the inhibition at 20 µM in test [3] (setting [4]) was found to be 39 ± 68%. Take `CC(NC1=NS(=O)(=O)c2cc(F)ccc2N1)c1ccccc1` (stereo not shown) [Compound 24a, 7-fluoro-3-((1-phenylethyl)amino)-4H-benzo[e][1,2,4]thiadiazine 1,1-dioxide]: the inhibition at 100 µM in test [1] was found to be 22%. The cytotoxicity at 100 µM in test [2] was 34%. Regarding `CC(NC1=NS(=O)(=O)c2ccc(Cl)cc2N1)c1ccccc1` (stereo not shown) [Compound 24b, 6-chloro-3-((1-phenylethyl)amino)-4H-benzo[e][1,2,4]thiadiazine 1,1-dioxide], in test [1], the inhibition at 100 µM turned out to be 51% and the IC50 is 89 µM. In test [2], the cytotoxicity at 100 µM came out at 50%. In addition, in test [3] (setting [4]), the inhibition at 20 µM stood at 38 ± 33%. `CC(NC1=NS(=O)(=O)c2cc(Br)ccc2N1)c1ccccc1` (stereo not shown) [Compound 24c, 7-bromo-3-((1-phenylethyl)amino)-4H-benzo[e][1,2,4]thiadiazine 1,1-dioxide]: in test [1], the inhibition at 100 µM was 55% and the 50% inhibitory concentration (IC50) was determined as 79.8 µM. In test [2], the cytotoxicity at 100 µM turned out to be 70%. Consider `O=S1(=O)N=C(NCc2ccc(C(F)(F)F)cc2)Nc2ccc(F)cc21` [Compound 25a, 7-fluoro-3-((4-(trifluoromethyl)benzyl)amino)-4H-benzo[e][1,2,4]thiadiazine 1,1-dioxide], for which, in test [1], the “inhibition of CII” value is 7% and 0%. For `O=S1(=O)N=C(NCc2ccc(C(F)(F)F)cc2)Nc2cc(Cl)ccc21` [Compound 25b, 6-chloro-3-((4-(trifluoromethyl)benzyl)amino)-4H-benzo[e][1,2,4]thiadiazine 1,1-dioxide], the inhibition at 100 µM in test [1] is 19%. The inhibition at 20 µM in test [3] (setting [4]) worked out at 1 ± 43%. On to `O=S1(=O)N=C(NCc2ccc(C(F)(F)F)cc2)Nc2ccc(Br)cc21` [Compound 25c, 7-bromo-3-((4-(trifluoromethyl)benzyl)amino)-4H-benzo[e][1,2,4]thiadiazine 1,1-dioxide], for which, in test [2], the cytotoxicity at 100 µM was found to be 34%.

Take `Cc1ccc(CNC2=NS(=O)(=O)c3cc(F)ccc3N2)cc1` [Compound 27a, 7-fluoro-3-((4-methylbenzyl)amino)-4H-benzo[e][1,2,4]thiadiazine 1,1-dioxide]: the inhibition at 100 µM in test [1] was 23%. As for `O=S1(=O)N=C(NCc2ccc(OC(F)(F)F)cc2)Nc2ccccc21` [Compound 30d, 3-((4-(trifluoromethoxy)benzyl)amino)-4H-benzo[e][1,2,4]thiadiazine 1,1-dioxide], the cytotoxicity at 100 µM in test [2] is ~30%. With `C=CCNC1=NS(=O)(=O)c2cc(F)ccc2N1` [Compound 32a, 3-(allylamino)-7-fluoro-4H-benzo[e][1,2,4]thiadiazine 1,1-dioxide], the inhibition at 100 µM in test [1] came out at 38%. Further, the cytotoxicity at 100 µM in test [2] is 24%. With `O=S1(=O)N=C(NCCc2c[nH]c3ccccc23)Nc2cc(Cl)ccc21` [Compound 36b, 3-((2-(1H-indol-3-yl)ethyl)amino)-6-chloro-4H-benzo[e][1,2,4]thiadiazine 1,1-dioxide], the inhibition at 100 µM in test [1] is 25%. For the same molecule, the inhibition at 20 µM in test [3] (setting [4]) amounted to 24 ± 38%. For the molecule `O=S1(=O)N=C(NCCc2ccc(Cl)cc2)Nc2ccc(F)cc21` [Compound 37a, 3-((4-chlorophenethyl)amino)-7-fluoro-4H-benzo[e][1,2,4]thiadiazine 1,1-dioxide], in test [1], the inhibition at 100 µM worked out at 34%. Besides, in test [2], the “reduction of 22Rv1 cell viability” value is “inactive”. Turning to `Cc1cccc(CNC2=NS(=O)(=O)c3ccc(Cl)cc3N2)c1` [Compound 42b, 6-Chloro-3-((3-methylbenzyl)amino)-4H-benzo[e][1,2,4]thiadiazine 1,1-dioxide], the “inhibition of VEGF-induced HUVEC proliferation (in words)” value in test [3] (VEGF 10 ng/mL) was “suppressed HUVEC proliferation; also recorded: enhanced activity”. Besides, the inhibition at 20 µM in test [3] was determined as 125 ± 10%. With `O=S1(=O)N=C(NCc2ccc(F)cc2)Nc2ccc(Cl)cc21` [Compound 54e, 7-Chloro-3-((4-fluorobenzyl)amino)-4H-benzo[e][1,2,4]thiadiazine 1,1-dioxide], the inhibition at 20 µM in test [3] (setting [4]) came to 70 ± 23%.

For the molecule `O=S1(=O)N=C(NCCc2ccccc2)Nc2ccc(Cl)cc21` [Compound 55e, 7-Chloro-3-(phenethylamino)-4H-benzo[e][1,2,4]thiadiazine 1,1-dioxide], the inhibition at 20 µM in test [3] worked out at 82 ± 10%. Take `O=S1(=O)N=C(NCc2ccccc2)Nc2ccc(Cl)cc21` [Compound 57e, 3-(Benzylamino)-7-chloro-4H-benzo[e][1,2,4]thiadiazine 1,1-dioxide]: the “inhibition of VEGF-induced HUVEC proliferation (in words)” value in test [3] (VEGF 10 ng/mL) is listed as “suppressed HUVEC proliferation; also recorded: enhanced activity”. In test [3] (setting [4]), the inhibition at 20 µM came to 122 ± 9%. The corresponding values for `O=S1(=O)N=C(NCc2ccncc2)Nc2ccc(Cl)cc21` [Compound 66e, 7-Chloro-3-((pyridin-4-ylmethyl)amino)-4H-benzo[e][1,2,4]thiadiazine 1,1-dioxide] are “suppressed HUVEC proliferation; also recorded: enhanced activity” and 67 ± 27%.
